Measurements published in ChEMBL document CHEMBL1129489.

What was measured:
[1] = biological target: D(2) dopamine receptor (Rattus norvegicus) (UniProt P61169)
[2] = biological target: D(1A) dopamine receptor (Rattus norvegicus) (UniProt P18901); experiment: (§1) Low-affinity agonist dissociation constant against striatal Dopamine receptor D1A; type: functional
[3] = biological target: D(1A) dopamine receptor (Homo sapiens) (UniProt P21728); conditions: COS-7
[4] = biological target: D(1A) dopamine receptor (Homo sapiens) (UniProt P21728); experiment: as §1; type: functional
[5] = biological target: D(1A) dopamine receptor (Homo sapiens) (UniProt P21728); conditions: COS-7; remark: listed apart in the source
[6] = biological target: D(1A) dopamine receptor (Homo sapiens) (UniProt P21728)
[7] = biological target: D(1A) dopamine receptor (Homo sapiens) (UniProt P21728); remark: listed apart in the source
[8] = biological target: D(2) dopamine receptor (Homo sapiens) (UniProt P14416)
Sequence of D(2) dopamine receptor (Homo sapiens) (P14416 whole entry): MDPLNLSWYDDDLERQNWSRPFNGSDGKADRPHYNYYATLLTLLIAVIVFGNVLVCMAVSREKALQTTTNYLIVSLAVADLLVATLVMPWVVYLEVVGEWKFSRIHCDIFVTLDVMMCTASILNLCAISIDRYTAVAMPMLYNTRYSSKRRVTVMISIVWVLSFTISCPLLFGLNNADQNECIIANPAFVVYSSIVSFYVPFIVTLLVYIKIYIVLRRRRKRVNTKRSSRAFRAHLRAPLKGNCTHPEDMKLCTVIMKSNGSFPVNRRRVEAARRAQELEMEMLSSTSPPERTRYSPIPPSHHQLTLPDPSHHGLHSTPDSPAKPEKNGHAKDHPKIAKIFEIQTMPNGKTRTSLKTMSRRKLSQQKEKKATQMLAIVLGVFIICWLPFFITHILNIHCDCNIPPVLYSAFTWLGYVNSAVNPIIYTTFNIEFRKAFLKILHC

Sequence of D(1A) dopamine receptor (Homo sapiens) (P21728 whole entry): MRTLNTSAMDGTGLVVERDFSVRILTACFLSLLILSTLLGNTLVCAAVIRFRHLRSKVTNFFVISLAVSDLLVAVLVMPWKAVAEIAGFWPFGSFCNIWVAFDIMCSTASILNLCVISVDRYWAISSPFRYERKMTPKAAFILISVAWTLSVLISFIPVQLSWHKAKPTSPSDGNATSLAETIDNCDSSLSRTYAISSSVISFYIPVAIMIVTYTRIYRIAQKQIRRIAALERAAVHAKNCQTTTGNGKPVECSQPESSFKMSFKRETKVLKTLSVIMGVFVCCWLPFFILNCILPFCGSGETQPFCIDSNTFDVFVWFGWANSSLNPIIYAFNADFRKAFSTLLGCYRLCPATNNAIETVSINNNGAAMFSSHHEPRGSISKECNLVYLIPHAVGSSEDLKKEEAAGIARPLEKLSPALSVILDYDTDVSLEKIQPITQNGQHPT
Sequence of D(1A) dopamine receptor (Rattus norvegicus) (P18901 whole entry): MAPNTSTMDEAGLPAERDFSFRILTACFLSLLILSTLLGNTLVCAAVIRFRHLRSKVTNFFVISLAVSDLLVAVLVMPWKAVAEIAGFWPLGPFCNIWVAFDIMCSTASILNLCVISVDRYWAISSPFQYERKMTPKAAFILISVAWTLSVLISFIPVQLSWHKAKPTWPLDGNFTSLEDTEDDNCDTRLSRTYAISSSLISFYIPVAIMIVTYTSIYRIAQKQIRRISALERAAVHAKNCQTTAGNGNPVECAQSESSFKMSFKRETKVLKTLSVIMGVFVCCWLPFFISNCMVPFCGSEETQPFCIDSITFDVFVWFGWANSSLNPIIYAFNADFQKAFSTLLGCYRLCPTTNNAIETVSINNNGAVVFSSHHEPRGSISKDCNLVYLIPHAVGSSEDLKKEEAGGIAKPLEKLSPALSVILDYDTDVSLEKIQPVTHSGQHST
Sequence of D(2) dopamine receptor (Rattus norvegicus) (P61169 whole entry): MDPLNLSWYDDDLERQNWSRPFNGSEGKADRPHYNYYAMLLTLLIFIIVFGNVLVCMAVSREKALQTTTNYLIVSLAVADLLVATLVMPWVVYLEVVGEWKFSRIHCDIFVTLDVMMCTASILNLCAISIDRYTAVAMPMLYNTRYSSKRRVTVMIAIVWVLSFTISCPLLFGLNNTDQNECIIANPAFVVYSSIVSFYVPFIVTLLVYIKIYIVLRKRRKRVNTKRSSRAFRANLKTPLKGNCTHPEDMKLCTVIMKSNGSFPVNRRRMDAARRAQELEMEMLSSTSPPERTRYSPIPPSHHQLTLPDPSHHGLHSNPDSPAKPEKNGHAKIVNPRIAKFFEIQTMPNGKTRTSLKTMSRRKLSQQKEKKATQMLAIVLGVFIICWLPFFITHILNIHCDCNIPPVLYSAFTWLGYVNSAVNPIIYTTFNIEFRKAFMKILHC

SMILES	KL [1] [µM]	KL [2] [nM]	also measured
NCCc1c[nH]c2ccc(O)cc12	183	6540	–
Oc1ccc(C2CNCCc3c2cc(O)c(O)c3Cl)cc1 (stereo unspecified)	1	21	–
NCCc1ccc(O)c(O)c1	–	580	–
NC[C@H](O)c1ccc(O)c(O)c1	126	4140	Log 1/Kd [3]: 4.69
CCCN1CCc2cccc3c2[C@@H]1Cc1ccc(O)c(O)c1-3	–	–	KL [4]: 5.2 µM
C=CCN1CCc2c(cc(O)c(O)c2Cl)[C@@H](c2ccccc2)C1	–	–	Log 1/KL [5]: -1.92; KL [6]: 83 nM
CNC[C@H](O)c1ccc(O)c(O)c1	128	980	–
CN1CCc2cccc3c2[C@H]1Cc1ccc(O)c(O)c1-3	–	–	KL [7]: 206 nM; KL [8]: 127 nM
Oc1cc2c(cc1O)[C@@H](c1ccccc1)CNCC2	–	381	–
Oc1ccc([C@@H]2CNCCc3c2cc(O)c(O)c3Cl)cc1	–	1340	–
CN(C)C1CCc2cc(O)c(O)cc2C1 (stereo unspecified)	0.463	734	–
CCCN1CCc2cccc3c2[C@H]1Cc1ccc(O)c(O)c1-3	0.023	625	–
